Experimental data published in paper PMC9030254, “Target Hopping from Protein Kinases to PXR: Identification of Small-Molecule Protein Kinase Inhibitors as Selective Modulators of Pregnane X Receptor from TüKIC Library” (Cells, 2022).
pEC50, pIC50: −log10 of the molar value. “And” between values parts separate entries of the source, which are not always exact repeats. Equal values may be shown once.

Tests used:
PXR [1] = biological target: T1, PXR (Homo sapiens, UniProt O75469); test: PXR-dependent CYP3A4 reporter gene assay, agonist mode; format: cell-based; parameters: expressed in transfected cells; host or cells: H-P cells (HepG2 stably transfected with PXR); settings: H-P cells; for activation of CYP3A4 reporter on their own, % of rifampicin activity: 10 µM compound alone, 10 µM rifampicin = 100%; for activation of CYP3A4 reporter on their own, % of rifampicin activity / pEC50: 24 h; for pEC50 / fold induction at 24 h: compound alone; for pEC50: read-out: EC50, PXR activation; for fold induction at 24 h: human, vs DMSO, read-out: maximal effect (Emax), fold induction
T1 sequence (O75469 1-434): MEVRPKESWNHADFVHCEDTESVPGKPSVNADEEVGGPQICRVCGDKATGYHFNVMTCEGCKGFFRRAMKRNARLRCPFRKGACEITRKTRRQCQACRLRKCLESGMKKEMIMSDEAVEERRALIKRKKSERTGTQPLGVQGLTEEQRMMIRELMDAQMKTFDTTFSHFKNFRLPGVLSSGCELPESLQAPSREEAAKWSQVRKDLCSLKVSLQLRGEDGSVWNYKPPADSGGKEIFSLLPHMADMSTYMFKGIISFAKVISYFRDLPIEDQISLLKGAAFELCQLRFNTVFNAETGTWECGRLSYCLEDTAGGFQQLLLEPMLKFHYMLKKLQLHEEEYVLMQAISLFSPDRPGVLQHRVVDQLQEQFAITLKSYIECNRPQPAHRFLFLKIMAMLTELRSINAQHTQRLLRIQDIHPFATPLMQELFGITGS
Text: (§1) Figure 1 Identification of novel putative PXR ligands from the TüKIC library. (A) Workflow of the in silico screening and structures of the identified candidate ligands. (B) Concentration–response curves of the novel inhibitors for antagonism of PXR activity. (C) Concentration–response curves of the same compounds and 109 for PXR activation. […] Data are expressed as mean ± SD fold induction with respect to the DMSO-treated cells from three independent experiments. IC50 and EC50 values calculated with nonlinear regression using formula with 3 parameters (constraint bottom =1) using GraphPadPrism.
(§2) Supplementary Figure S1. Effects of 56 in silico screened TüKIC compounds (A) alone or (B) in combination […]
(§3) H-P cells were transiently
(§4) Luciferase activities were measured after 24 h treatment. Data is expressed as mean ± SD %. Activation was calculated according to Zhu et al. from three independent experiments with technical triplicates. Fold induction achieved by 10 μM […]
(§5) Green and red dashed lines represent the 100% and 50% activation, respectively.
(§6) (1 picture or pasted object on this page, not shown here)

PXR [2] = biological target: T1, PXR; test: PXR-dependent CYP3A4 reporter gene assay, antagonist mode (cotreatment with rifampicin); format: cell-based; parameters: expressed in transfected cells; host or cells: H-P cells (HepG2 stably transfected with PXR); settings: for pIC50: read-out: IC50, inhibition of rifampicin-induced PXR activation
Text: as §1, §2, §3, §4, §5, §6

VDR = biological target: T2, VDR (Homo sapiens, UniProt P11473); test: Nuclear receptor selectivity reporter assay, VDR; format: cell-based; settings: for reduction of ligand-induced VDR activation: HepG2, 10 µM compound + 1 µM 1α,25(OH)2D3
T2 construct: expressed in transfected cells; host or cells: HepG2
T2 sequence (P11473 1-427): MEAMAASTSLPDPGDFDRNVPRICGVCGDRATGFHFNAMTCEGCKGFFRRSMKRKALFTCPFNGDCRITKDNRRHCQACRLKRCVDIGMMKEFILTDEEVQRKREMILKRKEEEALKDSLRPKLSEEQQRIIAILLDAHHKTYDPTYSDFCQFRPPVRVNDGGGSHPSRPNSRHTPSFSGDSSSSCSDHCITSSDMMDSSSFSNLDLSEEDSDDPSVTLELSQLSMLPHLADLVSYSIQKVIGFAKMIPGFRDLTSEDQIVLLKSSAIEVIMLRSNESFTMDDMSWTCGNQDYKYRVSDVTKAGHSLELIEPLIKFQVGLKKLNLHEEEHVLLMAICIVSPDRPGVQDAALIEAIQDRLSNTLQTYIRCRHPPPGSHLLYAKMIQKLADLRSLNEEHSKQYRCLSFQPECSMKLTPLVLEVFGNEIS
Method: (§7) For testing nuclear receptor selectivity and LBP-filled PXR mutant activation, transient batch transfection was conducted as above, but with HepG2 cells and the following plasmids, with amounts per well of 0.23–0.27 µg pGL4-CYP3A4(-7830Δ7208-364) or pGL3(DR3)3Tk (as reporter for VDR), 0.01 µg pMetLuc2control, and 0.03 µg either CAR1, CAR3, VDR, or PXR(S208W/S247W/C284W) expression plasmids. In addition, 0.03 µg RXRα expression plasmid was added to CAR3 transfections. Metridia luciferase activity was measured from 10 µL of medium supernatant after adding 100 µL Renilla luciferase assay solution.
(§8) Figure 6 Selectivity of novel PXR ligands within the NR1I group of nuclear receptors. HepG2 cells were transiently transfected with CYP3A4 reporter and expression plasmids encoding (A) CAR1 or (B) CAR3, or (C) direct repeat (DR3)3 reporter and expression plasmid encoding VDR. Cells were treated with 0.2% DMSO or 10 µM chemicals as indicated. 1α,25(OH)2D3 was used at 1 µM.

CAR3 = biological target: T3, CAR3 (Homo sapiens, UniProt Q14994, DEL233-236); test: Nuclear receptor selectivity reporter assay, CAR3; format: cell-based; settings: for impairment of ligand-induced activation of CAR3 by CITCO: HepG2, 10 µM compound + 10 µM CITCO
T3 construct: expressed in transfected cells; host or cells: HepG2
T3 sequence (Q14994 with tags, fused parts or gaps isoform Q14994-8 DEL233-236): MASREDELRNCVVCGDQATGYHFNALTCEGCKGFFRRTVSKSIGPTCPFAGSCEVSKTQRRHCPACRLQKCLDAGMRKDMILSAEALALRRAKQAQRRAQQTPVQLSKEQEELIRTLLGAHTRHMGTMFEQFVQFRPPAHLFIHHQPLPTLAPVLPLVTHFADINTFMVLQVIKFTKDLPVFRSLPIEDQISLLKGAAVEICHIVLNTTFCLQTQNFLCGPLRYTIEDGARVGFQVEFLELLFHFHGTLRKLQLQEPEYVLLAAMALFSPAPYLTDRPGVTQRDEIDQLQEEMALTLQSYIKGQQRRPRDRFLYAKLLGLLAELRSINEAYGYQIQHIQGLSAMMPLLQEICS
T3 sequence (P19793 1-462 partner): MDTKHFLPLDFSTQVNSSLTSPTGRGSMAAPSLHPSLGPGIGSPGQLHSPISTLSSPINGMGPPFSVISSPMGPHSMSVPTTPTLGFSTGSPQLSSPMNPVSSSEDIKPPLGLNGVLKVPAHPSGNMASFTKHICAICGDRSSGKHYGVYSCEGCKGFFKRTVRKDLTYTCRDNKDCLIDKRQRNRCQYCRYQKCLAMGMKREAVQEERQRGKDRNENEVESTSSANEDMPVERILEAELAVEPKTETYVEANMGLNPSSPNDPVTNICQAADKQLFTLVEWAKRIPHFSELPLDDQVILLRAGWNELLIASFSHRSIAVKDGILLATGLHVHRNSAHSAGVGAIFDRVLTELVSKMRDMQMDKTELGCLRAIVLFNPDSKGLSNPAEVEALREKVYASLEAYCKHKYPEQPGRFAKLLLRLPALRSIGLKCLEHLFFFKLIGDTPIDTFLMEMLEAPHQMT
Method: as §7, §8

CYP3A4 = test: PXR target gene mRNA expression in LS174T cells (RT-qPCR); settings: 10 µM single treatment, 48 h (109) or 72 h (73, 100)
Method: In chemical treatments, phenol red-free DMEM was used, and regular FBS was replaced by dextran-coated charcoal-treated FBS. For gene expression analyses, 0.3 × 10^6 LS174T cells were seeded per well of a 12-well plate. The next day, chemical treatment was initiated for 48–72 h, with daily medium change.
Total RNA was prepared from LS174T and HepaRG cells using the NucleoSpin RNA kit (Macherey-Nagel, Düren, Germany). RNA integrity was analyzed by formaldehyde-agarose gel electrophoresis. First strand cDNA was synthesized as described earlier [37]. Relative quantification analyses were conducted with TaqMan RT-PCR utilizing the BioMark HD system and FLEX Six Gene Expression Integrated Fluidic Circuits (Fluidigm, South San Francisco, CA, USA) as described previously [34]. TaqMan gene expression assays were either the commercially available predesigned assays Hs00184500_m1 (ABCB1) and Hs00604506_m1 (CYP3A4) (Thermo Fischer Scientific) or have been described previously: CYP2B6 [31] and 18S rRNA [39]. Data were analyzed as described previously [37]. Gene expression levels were normalized to respective 18S rRNA levels.

| Structure (SMILES) | activation of CYP3A4 reporter on their own, % of rifampicin activity (PXR [1]) | pEC50 (PXR [1]) | fold induction at 24 h (PXR [1]) | pIC50 (PXR [2]) | activation of VDR on their own (VDR; HepG2, 10 µM) | reduction of ligand-induced VDR activation (VDR) | activation of CAR3 on their own (CAR3; HepG2, 10 µM) | impairment of ligand-induced activation of CAR3 by CITCO (CAR3) | expression of CYP3A4 mRNA (CYP3A4) | inhibition of rifampicin-mediated induction of CYP3A4 reporter activity (PXR [2]; H-P cells, 10 µM compound + 10 µM rifampicin, 24 h) | activation of VDR, % of the effect of 1α,25-dihydroxy vitamin D3 (VDR; HepG2, 10 µM) | activation of CAR3, % of the effect of CITCO (CAR3; HepG2, 10 µM) |
| --- | --- | --- | --- | --- | --- | --- | --- | --- | --- | --- | --- | --- |
| Cc1ccc(NC(=O)Cc2ccccc2)cc1Nc1ccc2c(c1)CCCCC2=O [Compound 73] | about 10% | 6.39 | ~2 | 5.08 | Neither CAR3 nor VDR were activated | 51% | Neither CAR3 nor VDR were activated | 46% | induced CYP3A4 expression, which was comparable to induction by rifampicin |  |  |  |
| O=C(Cc1ccccc1)Nc1ccc(F)c(Nc2ccc3c(c2)CCCCC3=O)c1 [Compound 100] | about 10% | 6.82 | ~2 | 5.55 | Neither CAR3 nor VDR were activated | no respective effects | Neither CAR3 nor VDR were activated | no respective effects | induced CYP3A4 expression, which was comparable to induction by rifampicin |  |  |  |
| O=C(Nc1ccc(F)c(Nc2ccc3c(c2)CCCCC3=O)c1)c1cccc(F)c1 [Compound 109] |  | 4.36 and 4.53 | 27 |  |  |  |  |  | induced both genes | does not inhibit PXR | 5% | 12% |
